Data as given in PubChem BioAssay AID248 (DTP/NCI, 2004).
Where “and” joins values, the source holds several entries; their conditions need not be identical. Equal values may be shown once. Toxic doses and inconclusive results are not listed. No stated cut-off is given here; in the data, active means T/C of 150% or more; inactive means T/C below 125%.

Test system: L1210 leukemia ip in BDF1 mice, survival T/C
Assay: NCI In Vivo Anticancer Drug Screen. Data for tumor model L1210 Leukemia (intraperitoneal) in B6D2F1 (BDF1) mice
Settings: endpoint: mean survival time, higher = longer survival
In short: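 Tumor cells were implanted, animals were treated, and survival was followed. The result divides the treated measurement by the vehicle-control measurement.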

[1] = dose: 100.0 mg/kg/injection, schedule: Q01DX001 (ip), vehicle: saline
[2] = dose: 200.0 mg/kg/injection, schedule: Q01DX001 (ip), vehicle: saline
[3] = dose: 400.0 mg/kg/injection, schedule: Q01DX001 (ip), vehicle: saline
[4] = dose: 100.0 mg/kg/injection, schedule: Q01DX001 (ip), vehicle: Klucel (hydroxypropylcellulose) (HPC)
[5] = dose: 200.0 mg/kg/injection, schedule: Q01DX001 (ip), vehicle: Klucel (hydroxypropylcellulose) (HPC)
[6] = dose: 50.0 mg/kg/injection, schedule: Q01DX001 (ip), vehicle: saline

Measured: T/C

O=c1[nH]c(=O)n(CCCc2ccccc2)cc1-c1ccccc1
inactive: dose: 400.0 mg/kg/injection, schedule: Q01DX001 (ip), vehicle: carboxymethylcellulose (CMC) 90 % of control

O=C(O)/C(Br)=C\c1cccc([N+](=O)[O-])c1
inactive: [1] 107 % of control | [2] 98 % of control | [3] 109 % of control

CCC(C(=O)O)N1C(=O)C2C3CCC(C3)C2C1=O (configuration not stated)
inactive: dose: 100.0 mg/kg/injection, schedule: Q04DX003 (ip), vehicle: saline with Tween-80 98 % of control | dose: 200.0 mg/kg/injection, schedule: Q04DX003 (ip), vehicle: saline with Tween-80 103 % of control | dose: 400.0 mg/kg/injection, schedule: Q04DX003 (ip), vehicle: saline with Tween-80 103 % of control

CC(C)(C)c1cccc(S(=O)(=O)Oc2ccccc2[N+](=O)[O-])c1
inactive: dose: 100.0 mg/kg/injection, schedule: Q01DX009 (ip), vehicle: Klucel (hydroxypropylcellulose) (HPC) 103 % of control | dose: 200.0 mg/kg/injection, schedule: Q01DX009 (ip), vehicle: Klucel (hydroxypropylcellulose) (HPC) 93 % of control | dose: 400.0 mg/kg/injection, schedule: Q01DX009 (ip), vehicle: Klucel (hydroxypropylcellulose) (HPC) 95 % of control

Cc1csc(=S)n1-c1ccc(Cl)cc1
inactive: dose: 100.0 mg/kg/injection, schedule: Q01DX001 (ip), vehicle: saline with Tween-80 107 % of control | dose: 200.0 mg/kg/injection, schedule: Q01DX001 (ip), vehicle: saline with Tween-80 100 % of control | dose: 400.0 mg/kg/injection, schedule: Q01DX001 (ip), vehicle: saline with Tween-80 98 % of control

CCC[n+]1nc2ccccc2c(=Nc2ccccc2[N+](=O)[O-])[n-]1
inactive: [4] 100 % of control | dose: 100.0 mg/kg/injection, schedule: Q04DX003 (ip), vehicle: Klucel (hydroxypropylcellulose) (HPC) 98 % of control | [5] 100 % of control | dose: 200.0 mg/kg/injection, schedule: Q04DX003 (ip), vehicle: Klucel (hydroxypropylcellulose) (HPC) 106 % of control | dose: 400.0 mg/kg/injection, schedule: Q01DX001 (ip), vehicle: Klucel (hydroxypropylcellulose) (HPC) 98 % of control | dose: 400.0 mg/kg/injection, schedule: Q04DX003 (ip), vehicle: Klucel (hydroxypropylcellulose) (HPC) 101 % of control

O=C(Oc1ccc(N=Cc2ccccc2)cc1)Oc1ccc(N=Cc2ccccc2)cc1
inactive: [1] 86 % of control | [2] 86 % of control | [3] 95 % of control

CCCCCCCCCCCCCCCCCC[N+]1(C)CCC1C (configuration not stated)
inactive: dose: 0.78 mg/kg/injection, schedule: Q04DX003 (ip), vehicle: saline 102 % of control | dose: 1.56 mg/kg/injection, schedule: Q04DX003 (ip), vehicle: saline 101 % of control

NCCCc1nc(N)nc(N)c1-c1ccc(Cl)cc1
inactive: dose: 25.0 mg/kg/injection, schedule: Q04DX003 (ip), vehicle: saline 104 % of control | dose: 50.0 mg/kg/injection, schedule: Q04DX003 (ip), vehicle: saline 110 % of control | dose: 100.0 mg/kg/injection, schedule: Q04DX003 (ip), vehicle: saline 103 % of control

COc1ccc(OC)c(/C=C/[N+](=O)[O-])c1
inactive: dose: 6.25 mg/kg/injection, schedule: Q01DX009 (ip), vehicle: Klucel (hydroxypropylcellulose) (HPC) 105 % of control | dose: 12.5 mg/kg/injection, schedule: Q01DX009 (ip), vehicle: Klucel (hydroxypropylcellulose) (HPC) 102 % of control | dose: 25.0 mg/kg/injection, schedule: Q01DX009 (ip), vehicle: Klucel (hydroxypropylcellulose) (HPC) 107 % of control | dose: 50.0 mg/kg/injection, schedule: Q01DX009 (ip), vehicle: Klucel (hydroxypropylcellulose) (HPC) 105 % of control | dose: 100.0 mg/kg/injection, schedule: Q04DX003 (ip), vehicle: gum acacia 97 % of control

CC(CCc1ccc(OC(=O)c2ccccc2)cc1)OC(=O)c1ccccc1 (configuration not stated)
inactive: [6] 101 % of control | [1] 95 % of control | [2] 98 % of control | [3] 95 % of control

NCC(=O)c1c[nH]c(=O)[nH]c1=O
inactive: dose: 25.0 mg/kg/injection, schedule: Q01DX001 (ip), vehicle: saline 107 % of control | [6] 100 % of control | [1] 97 % of control and 102 % of control | [2] 115 % of control | [3] 102 % of control

Nc1cccc(CC(=O)Nc2ccc(S(=O)(=O)F)cc2)c1
inactive: [1] 90 % of control | [2] 106 % of control | [3] 100 % of control

O=C(O)C1CC1(Br)Br (configuration not stated)
inactive: dose: 100.0 mg/kg/injection, schedule: Q04DX003 (ip), vehicle: acetone 87 % of control

CCOC(=O)CCCNCCCC(=O)OCC
inactive: [1] 97 % of control | [2] 103 % of control | [3] 114 % of control

COc1ccc(/C=C(/C)[N+](=O)[O-])cc1
inactive: dose: 50.0 mg/kg/injection, schedule: Q01DX001 (ip), vehicle: Klucel (hydroxypropylcellulose) (HPC) 104 % of control | [4] 97 % of control | [5] 95 % of control and 90 % of control | dose: 300.0 mg/kg/injection, schedule: Q01DX001 (ip), vehicle: Klucel (hydroxypropylcellulose) (HPC) 100 % of control
